In patent publication US20150353495A1 (PORTOLA PHARMACEUTICALS, INC., priority 2010, published 2015):

Legend:
TYK2 = molecular target: T1, TYK2 (Homo sapiens, UniProt P29597); test: Z'-LYTE kinase assay TYK2; type: biochemical
T1 construct: 5 μl of catalytic domain recombinant Kinase enzyme+Tyr peptide substrate (Invitrogen, CA); purchased Invitrogen
T1 sequence (P29597 897-1176 limits assumed): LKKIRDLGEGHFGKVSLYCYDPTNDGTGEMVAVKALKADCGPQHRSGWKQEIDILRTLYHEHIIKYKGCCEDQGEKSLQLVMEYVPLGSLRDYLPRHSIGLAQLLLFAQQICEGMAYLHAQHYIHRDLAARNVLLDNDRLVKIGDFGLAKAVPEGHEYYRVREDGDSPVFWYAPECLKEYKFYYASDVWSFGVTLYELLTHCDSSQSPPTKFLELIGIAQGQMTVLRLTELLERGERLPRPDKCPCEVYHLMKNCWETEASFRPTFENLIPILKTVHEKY
Summary of the method: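 Recombinant catalytic-domain TYK2 with Tyr6 peptide in Z′-LYTE FRET format, 1% DMSO final, kinase reaction 1 h at room temperature, then protease development 1 h. Fluorescence read at 445/520 nm (excitation 400 nm), percent phosphorylation vs no-inhibitor control, IC50 from 4-parameter logistic fit.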

JAK3 = molecular target: T2, JAK3 (Homo sapiens, UniProt P52333); test: Z'-LYTE kinase assay JAK3; type: biochemical
T2 construct: 5 μl of catalytic domain recombinant Kinase enzyme+Tyr peptide substrate (Invitrogen, CA); purchased Invitrogen
T2 sequence (P52333 822-1111 limits assumed): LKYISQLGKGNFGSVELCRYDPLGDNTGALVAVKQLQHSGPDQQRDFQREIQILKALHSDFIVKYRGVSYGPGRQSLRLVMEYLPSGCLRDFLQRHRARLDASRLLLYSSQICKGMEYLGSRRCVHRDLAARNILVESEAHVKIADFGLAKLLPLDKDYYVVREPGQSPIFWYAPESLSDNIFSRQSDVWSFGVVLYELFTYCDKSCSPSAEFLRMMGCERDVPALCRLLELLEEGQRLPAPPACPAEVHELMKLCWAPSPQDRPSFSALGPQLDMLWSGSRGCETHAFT
Summary of the method: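 Catalytic-domain recombinant kinase was incubated with Tyr6 FRET peptide, ATP and compound (1% DMSO final) for 1 h at room temperature. Protease development followed for 1 h, cleaving only non-phosphorylated peptide. Inhibition of phosphorylation was read as coumarin/fluorescein FRET fluorescence.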

Structure (SMILES) | IC50 (TYK2) | IC50 (JAK3)
CC(=O)N1CCN(c2ccc(Nc3cc(NC4CC4)c(C(N)=O)cn3)cc2)CC1 [Example 2] | 100 to 1000 nM | 10 to 100 nM
CC(=O)N1CCN(c2ccc(Nc3cc(NCc4cccc(F)c4)c(C(N)=O)cn3)cc2)CC1 [Example 229] | 100 to 1000 nM | 1 to 10 nM
